Data published in patent publication US5071749A, “Glycopetide antibiotic PA-45052-B” (Shionogi & Co., Ltd., priority 1987, dated 1991).
≈ marks a conversion by molar mass, not a printed value.

Key:
[1] = test system: Staphylococcus aureus SR14; assay: In vitro antibacterial activity, agar dilution method (MIC); format: cell-based; conditions: Staphylococcus aureus SR14, penicillin-resistant, 37° C., 18-20 hrs
[2] = test system: Staphylococcus aureus SR3131; assay: as above; format: cell-based; conditions: Staphylococcus aureus SR3131, methicillin-resistant, 37° C., 18-20 hrs
[3] = test system: Staphylococcus aureus SR1626; assay: as above; format: cell-based; conditions: Staphylococcus aureus SR1626, methicillin-resistant, 37° C., 18-20 hrs
[4] = test system: Staphylococcus aureus SR3626; assay: as above; format: cell-based; conditions: Staphylococcus aureus SR3626, methicillin-resistant, 37° C., 18-20 hrs
[5] = test system: Staphylococcus aureus PDA 209P JC-1; assay: as above; conditions: 37° C., 18-20 hrs
[6] = test system: Staphylococcus aureus SMITH; assay: as above; conditions: 37° C., 18-20 hrs
[7] = test system: Staphylococcus aureus ATCC 25923; assay: as above; conditions: 37° C., 18-20 hrs
[8] = test system: Streptococcus epidermidis ATCC 14490; assay: as above; conditions: 37° C., 18-20 hrs
[9] = test system: Streptococcus pyogenes C-203; assay: as above; conditions: horse serum 0.5%, 37° C., 18-20 hrs
[10] = test system: Streptococcus pneumoniae Type I; assay: as above; conditions: horse serum 0.5%, 37° C., 18-20 hrs
[11] = test system: Streptococcus agalactiae SR 1247; assay: as above; conditions: horse serum 0.5%, 37° C., 18-20 hrs
[12] = test system: Streptococcus faecalis SR 1004; assay: as above; conditions: horse serum 0.5%, 37° C., 18-20 hrs
[13] = test system: mouse; assay: LD50 on injection to mouse; format: in vivo
Description: The growth-stimulating agent of this invention not only promotes growth of animals but also improves feed efficiency. Naturally, it is effective against infections by bacteria.

[14] = test system: Cl. perfringens NCTC-10239; format: cell-based, Clostridium perfringens; conditions: strain NCTC-10239, origin cow; GAM agar, anaerobic, 37° C., 24 hours
[15] = test system: Cl. perfringens FC 2208/75; format: cell-based, Clostridium perfringens; conditions: strain FC 2208/75, origin cow; GAM agar, anaerobic, 37° C., 24 hours
[16] = test system: Cl. perfringens S-79; format: cell-based, Clostridium perfringens; conditions: strain S-79, origin cow; GAM agar, anaerobic, 37° C., 24 hours
[17] = test system: Cl. perfringens CW-1970; format: cell-based, Clostridium perfringens; conditions: strain CW-1970, origin cow; GAM agar, anaerobic, 37° C., 24 hours
[18] = test system: Cl. perfringens 6B-10; format: cell-based, Clostridium perfringens; conditions: strain 6B-10, origin cow; GAM agar, anaerobic, 37° C., 24 hours
[19] = test system: Cl. perfringens NCTC-8239; format: cell-based, Clostridium perfringens; conditions: strain NCTC-8239, origin cow; GAM agar, anaerobic, 37° C., 24 hours
[20] = test system: Cl. perfringens NCTC-8798; format: cell-based, Clostridium perfringens; conditions: strain NCTC-8798, origin cow; GAM agar, anaerobic, 37° C., 24 hours
[21] = test system: Cl. perfringens SP07; format: cell-based, Clostridium perfringens; conditions: strain SP07, origin chicken; GAM agar, anaerobic, 37° C., 24 hours
[22] = test system: Cl. perfringens 9C-02; format: cell-based, Clostridium perfringens; conditions: strain 9C-02, origin chicken; GAM agar, anaerobic, 37° C., 24 hours
[23] = test system: Cl. perfringens 3C-01; format: cell-based, Clostridium perfringens; conditions: strain 3C-01, origin chicken; GAM agar, anaerobic, 37° C., 24 hours
[24] = test system: Cl. perfringens 02441; format: cell-based, Clostridium perfringens; conditions: strain 02441, origin chicken; GAM agar, anaerobic, 37° C., 24 hours
[25] = test system: broiler chicks; assay: Growth-stimulation test on chicks; format: in vivo, broiler chicks (arbor acre); conditions: 20 ppm in feed for 14 days; for FCR: feed efficiency (B/A) / FCR (%), index when control group is 100 / Increase of weight (%), index when control group is 100: broiler chicks; for Increase of weight A (M = g) ± SD (average increase of weight): broiler chicks 8 to 22 days old, 24 chicks; for FCR (%), index when control group is 100 / Increase of weight (%), index when control group is 100: control = 100
Description: The growth-stimulating activities of PA-45052-A, PA-45052-B and PA-45052-E on broiler chicks (arbor acre, 8 days old) were investigated by using the known antibiotic thiopeptin as a referential agent. Chicks were fed with a feed mush (crude protein (CP) concentration 18%, each agent's concentration 20 ppm, not supplemented with other antibiotics) for 14 days in the battery brooders. The method of this experiment was as follows. After chicks were fed by floor pen with a feed (CP concentration 23%) from 0 to 8 days, they were divided into 5 groups (24 chicks a group, 12 male and 12 female) in such a way that the average weights of the groups are equal. To each group was administered PA-45052-A (20 ppm), PA-45052-B (20 ppm), PA-45052-E (20 ppm), thiopeptin (20 ppm) or only a feed (CP 18%) for 14 days. Each group was fed in cages (435×600×410 mm, each cage has 6-7 chicks) at 26°±2° C. for 14 days (up to 22 days old). Effectiveness was estimated from the increase of weight and the feed efficiency.

[26] = test system: Staphylococcus aureus SR 2030; assay: Antibacterial activity in vivo, mouse intraperitoneal infection (ED50); conditions: Slc-ICR female mice, i.p. inoculation of S. aureus SR 2030 (methicillin-resistant); s.c. dosing 1 and 5 hours later; survival on day 7
Protocol: (§1) Test method: The test organism is intraperitoneally inoculated to Slc-ICR female mice (8 mice per group), and PA-45052-A, -B or -C (two-fold dilution) is subcutaneously administered twice one hour later and 5 hours later.
(§2) Results: The 50% effective dose (ED50) is calculated from the survival rate on day 7.

[27] = test system: Staphylococcus aureus SR 3637; assay: as above; conditions: Slc-ICR female mice, i.p. inoculation of S. aureus SR 3637 (methicillin-resistant); s.c. dosing 1 and 5 hours later; survival on day 7
Protocol: as §1, §2

[28] = test system: Streptococcus pneumoniae Type I; assay: as above; conditions: Slc-ICR female mice, i.p. inoculation of Streptococcus pneumoniae Type I; s.c. dosing 1 and 5 hours later; survival on day 7
Protocol: as §1, §2

[29] = test system: Streptococcus pyogenes C-203; assay: as above; conditions: Slc-ICR female mice, i.p. inoculation of Streptococcus pyogenes C-203; s.c. dosing 1 and 5 hours later; survival on day 7
Protocol: as §1, §2

Compound	MIC [1] [µg/mL]	MIC [2] [µg/mL]	MIC [3] [µg/mL]	MIC [4] [µg/mL]	MIC [5] [µg/mL]	MIC [6] [µg/mL]	MIC [7] [µg/mL]	MIC [8] [µg/mL]	MIC [9] [µg/mL]	MIC [10] [µg/mL]	MIC [11] [µg/mL]	MIC [12] [µg/mL]	LD50 [13] [mg/kg]	MIC [14] [µg/mL]	MIC [15] [µg/mL]	MIC [16] [µg/mL]	MIC [17] [µg/mL]	MIC [18] [µg/mL]	MIC [19] [µg/mL]	MIC [20] [µg/mL]	also measured
CC(C)CC(C(=O)NC1C(=O)NC(CC(N)=O)C(=O)NC2C(=O)NC3C(=O)NC(C(=O)NC(C(=O)O)c4cc(O)cc(O)c4-c4cc3ccc4O)C(OC3CC(C)(N)C(O)C(C)O3)c3ccc(c(Cl)c3)Oc3cc2cc(c3OC2OC(CO)C(O)C(O)C2O)Oc2ccc(cc2Cl)C1O)N(C)C (stereo not shown) [PA-45052-E]	0.78 (≈ 0.533 µM)	0.78 (≈ 0.533 µM)	0.78 (≈ 0.533 µM)	0.78 (≈ 0.533 µM)	0.39 (≈ 0.267 µM)	0.78 (≈ 0.533 µM)	0.78 (≈ 0.533 µM)	3.13 (≈ 2.14 µM)	0.39 (≈ 0.267 µM)	0.39 (≈ 0.267 µM)	0.39 (≈ 0.267 µM)	1.56 (≈ 1.07 µM)									
CNC(CC(C)C)C(=O)NC1C(=O)NC(CC(N)=O)C(=O)NC2C(=O)NC3C(=O)NC(C(=O)NC(C(=O)O)c4cc(O)cc(O)c4-c4cc3ccc4O)C(OC3CC(C)(N)C(O)C(C)O3)c3ccc(c(Cl)c3)Oc3cc2cc(c3OC2OC(CO)C(O)C(O)C2OC2CC(C)(N)C(O)C(C)O2)Oc2ccc(cc2Cl)C1O (stereo not shown) [PA-45052-A]	0.39 (≈ 0.245 µM)	0.39 (≈ 0.245 µM)	0.39 (≈ 0.245 µM)	0.39 (≈ 0.245 µM)	0.2 (≈ 0.126 µM)	0.39 (≈ 0.245 µM)	0.39 (≈ 0.245 µM)	0.78 (≈ 0.49 µM)	0.2 (≈ 0.126 µM)	0.1 (≈ 0.0628 µM)	0.2 (≈ 0.126 µM)	0.78 (≈ 0.49 µM)	> 1000	0.2 (≈ 0.126 µM)	0.39 (≈ 0.245 µM)	0.39 (≈ 0.245 µM)	0.39 (≈ 0.245 µM)	0.39 (≈ 0.245 µM)	0.2 (≈ 0.126 µM)	0.39 (≈ 0.245 µM)	MIC [21]: 0.2 µg/mL (≈ 0.126 µM); MIC [22]: 0.39 µg/mL (≈ 0.245 µM); MIC [23]: 0.78 µg/mL (≈ 0.49 µM); MIC [24]: 0.39 µg/mL (≈ 0.245 µM); FCR: feed efficiency (B/A) [25]: 1.63; Increase of weight A (M = g) ± SD (average increase of weight) [25]: 440.9 ± 60.4 g; FCR (%), index when control group is 100 [25]: 95.3%; Increase of weight (%), index when control group is 100 [25]: 105.9%; ED50 (50% effective dose) [26]: 0.99 mg/kg/dose; ED50 (50% effective dose) [27]: 1.91 mg/kg/dose; ED50 (50% effective dose) [28]: 0.19 mg/kg/dose; ED50 (50% effective dose) [29]: 0.14 mg/kg/dose
CNC(CC(C)C)C(=O)NC1C(=O)NC(CC(N)=O)C(=O)NC2C(=O)NC3C(=O)NC(C(=O)NC(C(=O)O)c4cc(O)cc(O)c4-c4cc3ccc4O)C(OC3CC(C)(N)C(O)C(C)O3)c3ccc(c(Cl)c3)Oc3cc2cc(c3OC2OC(CO)C(O)C(O)C2O)Oc2ccc(cc2Cl)C1O (stereo not shown) [PA-45052-B]	0.78 (≈ 0.538 µM)	0.39 (≈ 0.269 µM)	0.78 (≈ 0.538 µM)	0.39 (≈ 0.269 µM)	0.39 (≈ 0.269 µM)	0.78 (≈ 0.538 µM)	0.39 (≈ 0.269 µM)	1.56 (≈ 1.08 µM)	0.2 (≈ 0.138 µM)	0.2 (≈ 0.138 µM)	0.39 (≈ 0.269 µM)	0.78 (≈ 0.538 µM)	1439	0.2 (≈ 0.138 µM)	0.39 (≈ 0.269 µM)	0.39 (≈ 0.269 µM)	0.39 (≈ 0.269 µM)	0.39 (≈ 0.269 µM)	0.2 (≈ 0.138 µM)	0.39 (≈ 0.269 µM)	MIC [21]: 0.2 µg/mL (≈ 0.138 µM); MIC [22]: 0.39 µg/mL (≈ 0.269 µM); MIC [23]: 0.78 µg/mL (≈ 0.538 µM); MIC [24]: 0.39 µg/mL (≈ 0.269 µM); FCR: feed efficiency (B/A) [25]: 1.60; Increase of weight A (M = g) ± SD (average increase of weight) [25]: 438.5 ± 51.6 g; FCR (%), index when control group is 100 [25]: 93.6%; Increase of weight (%), index when control group is 100 [25]: 105.4%; ED50 (50% effective dose) [26]: 1.45 mg/kg/dose; ED50 (50% effective dose) [27]: 2.84 mg/kg/dose; ED50 (50% effective dose) [28]: 0.38 mg/kg/dose; ED50 (50% effective dose) [29]: 0.44 mg/kg/dose
